Patent US20200255828A1, “METHODS AND COMPOSITIONS FOR ALTERING FUNCTION AND STRUCTURE OF CHROMATIN LOOPS AND/OR DOMAINS” (THE BROAD INSTITUTE, INC., priority 2017, published 2020)

How the values were obtained:
Type in all cases: cell-based, human
[1] = tested on: cohesin complex; experiment: ChIP-Seq for RAD21 and SMC1 (cohesin binding to chromatin) with and without auxin
Excerpt: Applicants employed an auxin-inducible degron (AID) (Natsume et al., 2016) to destroy RAD21, a core component of the cohesin complex. In this system, constitutive expression of the auxin-activated ubiquitin ligase TIR1 leads, in the presence of auxin, to rapid degradation of proteins tagged with an AID domain. Applicants used this system in HCT-116, a human colorectal carcinoma cell line. This cell line had been previously modified by (Natsume et al., 2016) so that both RAD21 alleles were tagged with an AID domain and a fluorescent mClover (“RAD21-mAC”) (FIG. 1A). Applicants confirmed that RAD21-mAC was efficiently degraded after 6 hours of auxin treatment using fluorescence microscopy and ChIP (FIG. 1B, 8, see Methods), and that cohesin could no longer associate with DNA using ChIP-Seq with antibodies for SMC1, a different cohesin subunit (FIG. 1C, D).
(§1) ChIP-Seq for H3K27Ac, H3K4me1, H3K4me3, H3K36me3, H3K27me3, H3K9me3, H4K16Ac, H4K20me3, H3K79me2, and H2.AZ was performed using a native ChIP-Seq protocol. Chromatin from untreated HCT-116 RAD21-mAC cells or cells treated for 6 hours with 500 uM IAA was digested with Mnase (Sigma) in digestion buffer (50 mM Tris-HCl, pH7.6, 1 mM CaCl2), 0.2% Triton X-100, butyrate 5 mM) for 5′ at 37° C. and dialyzed against RIPA buffer for 2 hrs at 4° C. Five microgram of respective antibody was incubated with 40 μl of Dynabeads Protein A (or G) for 40 min at room temperature. Antibody-bound beads were added to 500 μl of sonicated or Mnase-digested chromatin, incubated at 4° C. overnight, and washed twice with RIPA buffer, twice with RIPA buffer containing 0.3 M NaCl, twice with LiCl buffer (0.25 M LiCl, 0.5% Igepal-630, 0.5% sodium deoxycholate), once with TE (pH 8.0) plus 0.2% Triton X-100, and once with TE (pH 8.0). ChIP DNA was purified by phenol-chloroform extraction followed by ethanol precipitation. Libraries were prepped for Illumina sequencing and 50 bp single-end reads were sequenced on a HiSeq2000 or 2500 (Illumina). Applicants also performed ChIP-Seq for RAD21 and CTCF following the same protocol as above, except that cells were fixed with 1% formaldehyde for 10 minutes at 37° C. and fixation was quenched by the addition of glycine to a final concentration of 125 mM for 10 minutes. The fixed cells were sonicated using a Branson sonifier at amplitude 35%, 12 cycles of 20 seconds of sonication and 30 seconds of pause. Antibody was added to the sonicated chromatin as above and the samples were further processed as above.
Applicants also performed ChIP-Seq for SMC1 and an additional replicate for CTCF following the protocol outlined by the ENCODE consortium (2012).
(§2) All ChIP-Seq data was aligned to hg19 with BWA (Li and Durbin, 2010), deduplicated using PicardTools, and analyzed with MACS 2.0 (Liu, 2014). All data was normalized against the corresponding input control using the ‘-c’ option of MACS 2.0. ChIP-Seq peaks were called using the ‘callpeak’ function of MACS 2.0 with default parameters. For H3K4me3 and H3K4me1, Applicants additionally used the ‘broad’ option of MACS 2.0 and merged close by peaks to identify broad peaks. […] Finally, in order to annotate broad-source domains, Applicants utilized RSEG (Song and Smith, 2011) using the following flags: ‘-b 25000’, ‘-i 20’, ‘-mode 2’.
Applicants also analyzed the RAD21 and SMC1 signal at all ChIP-Seq peaks called in our data from untreated cells using MACS 2.0. […]

[2] = tested on: CTCF; experiment: ChIP-Seq for CTCF with and without auxin
Method: as §1, with “above. […]” for “above.”
All ChIP-Seq data was aligned to hg19 with BWA (Li and Durbin, 2010) (Li and Durbin, 2010) (Li and Durbin, 2010), deduplicated using PicardTools, and analyzed with MACS 2.0 (Liu, 2014). […]
(§3) Applicants calculated average signal over 5 kb bins across the entire genome and correlated signal between ChIP-Seq experiments before and after auxin treatment for each of CTCF, H3K27me3, H3K9me3, H3K4me1, H3K4me3 and H3K27Ac.

[3] = tested on: histone modifications; experiment: ChIP-Seq for histone modifications before and after auxin
Excerpt: Applicants first examined the effects of cohesin degradation on key epigenomic features associated with genome folding, using ChIP-Seq. Applicants examined the distribution of CTCF (associated with loop anchors) and the histone modifications H3K27me3, H3K36me3, H3K27Ac, H3K4me1, H3K4me3, H3K9me3, H4K16Ac, H4K20me3, H3K79me2, and H2.AZ (associated with compartment intervals). Cohesin loss had little effect on these features (FIG. 1C,D; FIG. 8C-E, see Methods).
as §1, §2, §3
Additionally, Applicants examined overlaps of our ChIP-Seq peak annotations before and after auxin treatment for H3K4me3, H3K4me1 and H3K27Ac. […]

[4] = tested on: HCT-116 RAD21-mAC cells; experiment: APA for cohesin-independent links after cohesin degradation with ATP depletion; conditions: auxin 6 hours, without any additional treatment
Excerpt: Using the degron system, Applicants can directly measure the influence of cellular processes on loop formation (Vian et al, 2018). […] Applicants also tested interchromasomal cohesin-independent links requirement for ATP after cohesin degradation and observed that depletion of ATP strengthens the interactions between superenhancers (FIG. 23).

[5] = average at ChIP-Seq peaks called in untreated cells

O=C(O)Cc1c[nH]c2ccccc12 [auxin, indole-3-acetic acid]
cohesin peaks (merged SMC1 and RAD21 ChIP-Seq calls) lost after auxin treatment ([1]; 6 hours auxin): 97% | reduction in binding strength of RAD21 [1, 5]: 81% | reduction in binding strength of SMC1 [1, 5]: 75% | RAD21 mean enrichment in treated cells ([1]; untreated 12.58): 2.39 | SMC1 mean enrichment in treated cells ([1]; untreated 16.23): 4.00 | CTCF peaks called after auxin treatment also called before auxin treatment [2]: 96% | Spearman's r of ChIP-Seq signal before vs after auxin treatment, CTCF ([2]; 5 kb bins genome-wide): 0.80 | average enrichment at all CTCF binding sites called by ENCODE, treated cells ([2]; untreated 10.89): 8.93 | overlap of H3K4me1 ChIP-Seq peaks called before and after auxin treatment [3]: 85% | overlap of H3K4me3 ChIP-Seq peaks called before and after auxin treatment [3]: 90% | overlap of H3K27Ac ChIP-Seq peaks called before and after auxin treatment [3]: 81% | Spearman's r of ChIP-Seq signal before vs after auxin treatment, H2.AZ ([3]; 5 kb bins genome-wide): 0.96 | Spearman's r of ChIP-Seq signal before vs after auxin treatment, H3K4me1 ([3]; 5 kb bins genome-wide): 0.94 | Spearman's r of ChIP-Seq signal before vs after auxin treatment, H3K4me3 ([3]; 5 kb bins genome-wide): 0.70 | Spearman's r of ChIP-Seq signal before vs after auxin treatment, H3K9me3 ([3]; 5 kb bins genome-wide): 0.95 | Spearman's r of ChIP-Seq signal before vs after auxin treatment, H3K27Ac ([3]; 5 kb bins genome-wide): 0.90 | Spearman's r of ChIP-Seq signal before vs after auxin treatment, H3K27me3 ([3]; 5 kb bins genome-wide): 0.95 | Spearman's r of ChIP-Seq signal before vs after auxin treatment, H3K36me3 ([3]; 5 kb bins genome-wide): 0.94 | Spearman's r of ChIP-Seq signal before vs after auxin treatment, H3K79me2 ([3]; 5 kb bins genome-wide): 0.96 | Spearman's r of ChIP-Seq signal before vs after auxin treatment, H4K16Ac ([3]; 5 kb bins genome-wide): 0.95 | Spearman's r of ChIP-Seq signal before vs after auxin treatment, H4K20me3 ([3]; 5 kb bins genome-wide): 0.89 | APA score for cohesin-independent links [4]: 8.28
